“Also recorded” adds a separate entry of the source.
Columns and labels:
[1] = system: acetylation of the microtubule network in HeLa cells; experiment: immunofluorescence microscopy of acetylated microtubule network; format: cell-based; details: 4 h
Source text: Cells were then stained with an anti-acetyl-α-tubulin antibody (Sigma-Aldrich, T6793) and then probed with a secondary Alexa 546 conjugated anti-mouse-antibody (Invitrogen). Nuclei were counterstained with DAPI (4',6-diamidino-2-phenylindole). Coverslips were mounted with FluoroMount (Sigma-Aldrich) and sealed with DPX Mountant (Sigma-Aldrich). Images of the mounted samples were acquired on a Leica DM500 microscope equipped with a Leica DFC 395 FX camera and HBO 100 W lamp[40]. The microscope was run with the Leica Application Suite 4.4.0 software. Chroma UV filter set (No. C40888) and Leica N2.1 filter set (No. 513832) were used for DAPI and Alexa 546 signal acquisition, respectively, with a HCX FL Fluotar 40x/0.75 (dry) objective. Further details about the equipment and the settings that were used to acquire the images are found in the Supplementary Methods section. Unprocessed images are found in Supplementary Fig. 9. […]
Immunocytochemistry equipment and settings. The signal of Alexa 546 and DAPI of the same region were acquired with constant illumination parameters as grayscale 8-bit 600 dpi tiff files (1600u 1200 pixels). Alexa 546 was acquired after 639.1 ms with a gamma factor of 0.65 without multiplying. The gain was set to 1. DAPI-stained images were acquired after about 20 ms with the same parameters as the one for Alexa 546 image acquisition. The temperature in the microscope room was kept at RT. Representative regions of each samples were processed with Adobe Photoshop CS2 to generate images in RGB mode by copying the appropriate original greyscale images to the blue (nuclei, DAPI) and the red (acetylated D-tubulin signal, Alexa 546) channel, respectively. As adjustment, a minimal background subtraction was applied on all images during processing in the same manner. The resolution was changed from 600 dpi (source images) to 450 dpi without resampling (Fig. 7 of the main article). LUT (CLUT) of grayscale images of the acetylated D-tubulin signal and of the DAPI signal are shown in Supplementary Fig. 8. […]

human Sirt1 = target: T1, human Sirt1 (Homo sapiens, UniProt Q96EB6); experiment: fluorescence-based in vitro sirtuin assay, substrate ZMAL; details: at 50 μM
T1 sequence (Q96EB6 133-747): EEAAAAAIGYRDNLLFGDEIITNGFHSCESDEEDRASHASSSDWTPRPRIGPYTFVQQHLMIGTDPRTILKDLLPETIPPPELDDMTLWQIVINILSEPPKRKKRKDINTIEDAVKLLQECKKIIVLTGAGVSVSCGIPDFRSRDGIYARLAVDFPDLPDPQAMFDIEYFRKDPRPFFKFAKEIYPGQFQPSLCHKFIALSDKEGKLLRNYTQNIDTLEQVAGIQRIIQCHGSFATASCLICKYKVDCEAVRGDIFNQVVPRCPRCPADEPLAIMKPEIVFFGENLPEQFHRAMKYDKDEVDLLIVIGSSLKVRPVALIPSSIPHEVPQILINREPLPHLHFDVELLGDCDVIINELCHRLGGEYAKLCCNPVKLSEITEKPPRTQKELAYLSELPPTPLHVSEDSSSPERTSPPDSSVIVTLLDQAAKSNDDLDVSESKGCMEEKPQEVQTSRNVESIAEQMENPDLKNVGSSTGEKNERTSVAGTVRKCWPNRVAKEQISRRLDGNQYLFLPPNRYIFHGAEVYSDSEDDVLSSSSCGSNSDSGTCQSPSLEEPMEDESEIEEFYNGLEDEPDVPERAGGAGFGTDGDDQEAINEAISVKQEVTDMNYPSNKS

Sirt2 = target: Sirt2; set-up: method as in earlier work; details: ref 2-9 (supplementary references), cited from earlier work
Sirt1 = system: Sirt1; set-up: method as in earlier work; details: selectivity profile, Sirt1 entry; ref 2-9 (supplementary references); cited from earlier work
Sirt3 = system: Sirt3; set-up: method as in earlier work; details: selectivity profile, Sirt3 entry; † inhibition substrate-dependent; ref 2-9 (supplementary references); cited from earlier work
[2] = system: p53-Lys382-acetylation in U2OS cells; experiment: p53 acetylation after ultraviolet exposure, western blot; format: cell-based; details: 1 h pretreatment, 20 J cm^-2 UV, further 6 h
Method: U2OS cells (ATCC accession no. HTB-96) were seeded and cultured until they reached 90% confluency. […] Cells were incubated for an additional 6 h in the presence of the inhibitor and then lysed in IPLS (50 mM Tris/HCl, 150 mM NaCl; 0.5 mM EDTA; 0.5% (v/v) NP-40; 1 × Complete Protease Inhibitors (Roche), pH 8.0) and resuspended in 1 × Laemmli Buffer. Samples were then separated on SDS–PAGE, transferred to a nitrocellulose membrane (Bio-Rad), blocked with non-fat dry milk (Roth, 5% (w/v), TBS, 0.1% (v/v) Tween 20) and probed with anti-acetyl-p53 K382 (Cell Signaling, #2522), anti-p53 DO.1 (Santa Cruz Biotechnology, sc-126) and anti-vinculin (Cell Signaling, #4650) as a loading control. Uncropped blots are shown in the Supplementary Fig. 10.

[3] = system: mitochondrial lysine-acetylation in HEK293 cells; experiment: mitochondrial protein acetylation, western blot of mitochondrial extracts; format: cell-based; details: 16 h
Method: page 27: Cell cultiva tion. HEK-293 cells (ATCC accession no. CRL-1573) were grown in Dulbecco's modified Eagle's medium (DMEM, PAA) containing 10% (vol/vol) fetal calf serum (FCS, PAA), 1% (vol/vol) penicillin (PAA), 1% (vol/vol) streptomycin (PAA), 1% (vol/vol), L- glutamine (PAA) at 37 °C in a 5% (vol/vol) CO2 atmosphere. Mitochondrial extra ction. HEK-293 cells (ATCC accession no. CRL-1573) were treated with nicotinamide or […]2 at the indicated concentrations for 16 h. Cells were washed in PBS and lysed in 5 packed cell volumes of lysis buffer (20 mM HEPES/KOH, 250 mM sucrose; 10 mM KCl, 1.5 mM MgCl2, 1 mM EDTA, 1 mM EGTA, 1 mM DTT; 0.1 mM PMSF, 1uComplete Protease Inhibitor Cocktail (Roche), pH 7.5). Cells were then homogenized in a Dounce homogenizer and 10% (vol/vol) of sample was removed for use as whole cell extract (WCE). To the remaining lysate, unbroken cells and nuclei were removed by centrifugation (10 min, 800g). The supernatant was transferred and centrifuged (10 min, 7,000g) to pellet mitochondria. Mitochondria were washed twice in lysis buffer, repeating centrifugation after each wash, followed by resuspending washed mitochondria in lysis buffer. […] Lysates were cleared by centrifugation, protein concentrations were quantitated and normalized with 1u Laemmli Buffer. […]

human Sirt2 = target: T2, human Sirt2 (Homo sapiens, UniProt Q8IXJ6); experiment: fluorescence-based in vitro sirtuin assay, substrate ZMAL
T2 sequence (Q8IXJ6 25-389): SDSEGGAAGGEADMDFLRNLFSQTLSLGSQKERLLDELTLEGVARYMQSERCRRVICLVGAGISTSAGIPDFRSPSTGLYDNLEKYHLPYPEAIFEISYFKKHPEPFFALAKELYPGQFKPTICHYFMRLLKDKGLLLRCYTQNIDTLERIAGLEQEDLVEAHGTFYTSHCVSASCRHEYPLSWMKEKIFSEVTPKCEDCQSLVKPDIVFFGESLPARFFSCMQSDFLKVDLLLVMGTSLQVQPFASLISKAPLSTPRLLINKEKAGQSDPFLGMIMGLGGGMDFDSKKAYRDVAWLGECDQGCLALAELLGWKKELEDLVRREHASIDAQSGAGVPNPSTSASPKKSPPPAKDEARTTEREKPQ

BubR1 in HeLa cells = experiment: abundance of BubR1, western blot; format: cell-based; details: various concentrations, 16 h
Method: Cells were washed with PBS, lysed in IPLS (50 mM Tris/HCl, 150 mM NaCl, 0.5 mM EDTA, 0.5% (v/v) NP-40, pH 7.5, supplemented with Complete protease inhibitors (Roche)). Samples were pelleted and resuspended in 1 × SDS–PAGE sample buffer and heated (95 °C, 5 min). Cell samples were separated using SDS–PAGE (10% (w/v) polyacrylamide), transferred to a nitrocellulose membrane (Bio-Rad), blocked with non-fat dry milk (Roth, 5% (w/v), TBS, 0.1% (v/v) Tween 20) and probed with the anti-BubR1 (1:5,000, BD Biosciences, 612502) and anti-tubulin (1:5,000, Sigma-Aldrich, T5168) as a loading control. Uncropped blots are shown in the Supplementary Fig. 8.

[4] = system: α-tubulin acetylation in HeLa cells; experiment: tubulin acetylation, western blot; format: cell-based; details: various concentrations, 5 h
Source text: Cell samples were then separated using SDS–PAGE (12.5% (w/v) polyacrylamide), transferred to an activated nitrocellulose membrane (Bio-Rad), blocked with non-fat dry milk (Roth, 5% (w/v), TBS, 0.1% (v/v) Tween 20) and probed with an anti-acetyl-α-tubulin antibody (1:1,000, Sigma-Aldrich, T6793) and an anti-GAPDH antibody (1:2,000–1:5,000, Sigma-Aldrich, G9545) as a loading control (Fusion SL, peqlab). An uncropped blot is shown in Supplementary Fig. 8.

## N#C/C(=C\c1ccc(-c2cc(Cl)ccc2Cl)o1)C(=O)Nc1cccc2ncccc12 [AGK2, reference compound]
[1]; 20 μM
  acetylation level of the microtubule network: hyperacetylation of the microtubule network
Human Sirt1
  activity of Sirt1: not affected

## NC(=O)[C@H]1CCCCc2c1[nH]c1ccc(Cl)cc21 [CHIC-35]
Sirt2; published values, Supplementary Table 1
  IC50/kd for Sirt2: 2.4 µM
Sirt2; selectivity profile, Sirt2 entry
  Selectivity Sirt1/Sirt2/Sirt3 (fold): Sirt2: 23 fold
Sirt1
  Selectivity Sirt1/Sirt2/Sirt3 (fold): Sirt1: 1 fold
Sirt3
  Selectivity Sirt1/Sirt2/Sirt3 (fold): Sirt3: > 833 fold

## NC(=O)c1cccnc1 [NCA, nicotinamide, reference compound]
[2]
  acetylation of p53 (Lys382) after ultraviolet exposure: further increased
[2]; listed as nicotinamide
  acetylation of p53 (Lys382) after ultraviolet exposure: increase
[3]
  acetylation of mitochondrial proteins: increase

## O=C(Nc1ccccc1-c1cn2c(CN3CCNCC3)csc2n1)c1cnc2ccccc2n1 [SRT1720]
Sirt1
  Selectivity Sirt1/Sirt2/Sirt3 (fold): Sirt1: activation
Sirt3
  Selectivity Sirt1/Sirt2/Sirt3 (fold): Sirt3: 1 fold

## O=C(CSc1ncccn1)Nc1ncc(Cc2cccc3ccccc23)s1 [SirReal3]
Human Sirt2
  IC50: 2.3 µM

## O=C(CSc1ncccn1)Nc1ncc(Cc2ccccc2)s1 [SirReal4]
Human Sirt2
  IC50: 16.8 µM

## Cc1cc(C)cc(SCC(=O)Nc2ncc(Cc3cccc4ccccc34)s2)c1 [SirReal5]
BubR1 in HeLa cells
  abundance of BubR1: did not influence
[2]
  acetylation of p53 (Lys382) after ultraviolet exposure: did not observe an increase
Human Sirt2
  IC50: > 50 µM

## Cc1cc(C)nc(SCC(=O)N(C)c2ncc(Cc3cccc4ccccc34)s2)n1 [SirReal6]
[4]
  level of α-tubulin acetylation: not
[1]; 50 μM
  acetylation level of the microtubule network: does not alter; also recorded: no substantial change
BubR1 in HeLa cells
  abundance of BubR1: did not influence
[2]
  acetylation of p53 (Lys382) after ultraviolet exposure: did not observe an increase
Human Sirt2
  IC50: > 100 µM
